Activity calls are given as the source filed them.
Assays:
[1] = biological target: T1, Short transient receptor potential channel 4 (Mus musculus, UniProt Q9QUQ5); experiment: block of DAMGO-driven TRPC4 calcium entry – cell-based, HEK293 TRPC4/mu-opioid, Fluo-4 calcium, dose response (AID 434942); assay type: functional;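 further: potency of inhibitors blocking the TRPC4 calcium response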
T1 sequence (Q9QUQ5 whole entry): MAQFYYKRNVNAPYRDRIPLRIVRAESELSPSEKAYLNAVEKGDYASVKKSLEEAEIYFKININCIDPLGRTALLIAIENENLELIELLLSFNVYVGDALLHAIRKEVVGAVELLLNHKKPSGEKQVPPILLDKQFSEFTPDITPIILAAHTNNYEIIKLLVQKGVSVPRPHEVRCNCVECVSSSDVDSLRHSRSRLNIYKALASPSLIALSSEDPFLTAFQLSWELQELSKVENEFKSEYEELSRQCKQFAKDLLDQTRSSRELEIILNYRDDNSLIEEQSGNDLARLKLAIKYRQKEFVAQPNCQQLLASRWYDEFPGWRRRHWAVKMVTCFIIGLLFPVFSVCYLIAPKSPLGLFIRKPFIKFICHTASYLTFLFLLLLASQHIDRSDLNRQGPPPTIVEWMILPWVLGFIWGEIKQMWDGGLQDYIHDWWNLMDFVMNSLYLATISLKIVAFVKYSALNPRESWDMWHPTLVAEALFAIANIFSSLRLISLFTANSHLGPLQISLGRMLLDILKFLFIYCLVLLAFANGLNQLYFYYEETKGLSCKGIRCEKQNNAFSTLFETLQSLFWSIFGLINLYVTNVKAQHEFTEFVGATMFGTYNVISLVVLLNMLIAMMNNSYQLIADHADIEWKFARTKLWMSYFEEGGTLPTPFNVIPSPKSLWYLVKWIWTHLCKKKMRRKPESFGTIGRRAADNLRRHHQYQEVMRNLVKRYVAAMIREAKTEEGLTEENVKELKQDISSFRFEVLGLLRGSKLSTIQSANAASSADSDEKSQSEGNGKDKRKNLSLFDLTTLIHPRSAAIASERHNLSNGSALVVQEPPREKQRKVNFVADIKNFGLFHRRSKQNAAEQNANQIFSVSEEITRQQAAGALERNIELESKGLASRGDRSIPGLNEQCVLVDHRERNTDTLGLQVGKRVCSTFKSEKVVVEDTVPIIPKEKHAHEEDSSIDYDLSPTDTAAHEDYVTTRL

[2] = system: INS1; experiment: INS-1E survival protection against cytokine death – cell-based, luminescence, retest, dose response (AID 449756); assay type: functional; conditions: Rattus norvegicus;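 further: cell death triggered by IL-1 beta plus TNF-alpha plus IFN-gamma mixture; protective hits raise ATP signal compared with cytokine alone wells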
[3] = biological target: Voltage-dependent T-type calcium channel subunit alpha-1H (Homo sapiens, UniProt O95180); assay type: functional;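 further: channel activity triggered by adding a high calcium stimulation buffer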
[4] = biological target: T2, Corticotropin-releasing factor receptor 2/Corticotropin-releasing factor-binding protein (Homo sapiens, UniProt P24387+Q13324); experiment: activators of CRF receptor 2 with binding protein – uHTS hits, confirmation (AID 602473); assay type: functional; conditions: read-out: EC50_Mean
T2 sequence (Q13324 whole entry): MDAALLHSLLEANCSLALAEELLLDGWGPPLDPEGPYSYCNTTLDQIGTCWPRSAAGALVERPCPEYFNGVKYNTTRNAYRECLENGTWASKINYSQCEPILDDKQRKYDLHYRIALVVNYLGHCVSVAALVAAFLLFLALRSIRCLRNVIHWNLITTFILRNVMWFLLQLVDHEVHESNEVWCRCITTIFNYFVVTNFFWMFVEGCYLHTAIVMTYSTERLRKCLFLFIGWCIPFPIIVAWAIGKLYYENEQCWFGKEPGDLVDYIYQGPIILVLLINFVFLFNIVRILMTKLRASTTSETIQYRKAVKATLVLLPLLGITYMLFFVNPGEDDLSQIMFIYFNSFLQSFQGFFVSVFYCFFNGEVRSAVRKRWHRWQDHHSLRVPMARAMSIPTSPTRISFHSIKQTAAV
T2 sequence (P24387 whole entry): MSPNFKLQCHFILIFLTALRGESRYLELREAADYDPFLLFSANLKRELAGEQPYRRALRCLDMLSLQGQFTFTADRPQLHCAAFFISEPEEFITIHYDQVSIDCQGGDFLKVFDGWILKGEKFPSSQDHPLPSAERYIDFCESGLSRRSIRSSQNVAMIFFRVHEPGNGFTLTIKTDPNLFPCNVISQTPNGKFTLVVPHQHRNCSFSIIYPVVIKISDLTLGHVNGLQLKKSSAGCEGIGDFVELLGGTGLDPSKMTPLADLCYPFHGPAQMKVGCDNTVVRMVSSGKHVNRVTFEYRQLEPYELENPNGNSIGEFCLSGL

[5] = biological target: Nucleotide-binding oligomerization domain-containing protein 2 (Homo sapiens, UniProt Q9HC29); experiment: inhibition of NOD2-driven NF-kB reporter – cell-based, luminescence, uHTS, HEK293 (AID 1566); assay type: functional
[6] = system: HEK293; experiment: cells; assay type: functional, cell-based; conditions: Homo sapiens
[7] = system: HEK293; experiment: cells; assay type: functional, cell-based; conditions: Homo sapiens; remark: listed apart in the source
[8] = system: HEK293; experiment: inhibition of NOD1-driven NF-kB reporter – cell-based, luminescence, uHTS, primary screen (AID 1578); assay type: functional; conditions: Homo sapiens
[9] = system: HEK293; experiment: cells; assay type: functional, cell-based; conditions: Homo sapiens; remark: listed apart in the source
[10] = system: HEK293; experiment: NOD2 signaling inhibitors in MDP-stimulated cells, cell-based, uHTS, luminescence (AID 2001); assay type: functional; conditions: Homo sapiens
[11] = biological target: Eukaryotic translation initiation factor 4E (Mus musculus, UniProt P63073); experiment: blockers of eIF4G binding by eIF4E – biochemical, TR-FRET, dose response (AID 855); assay type: functional;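 further: potency for disrupting eIF4E binding to eIF4GI seen as loss of FRET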
[12] = biological target: T3, Streptokinase A (Streptococcus pyogenes serotype M1, UniProt P10520); experiment: viability-normalized secreted streptokinase activity reduction – plasminogen activation absorbance, OD405, dose response (AID 1914); assay type: functional, Streptococcus pyogenes M1 GAS;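 further: secreted streptokinase activity via plasminogen activation per viability signal from cell pellet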
T3 sequence (P10520 whole entry): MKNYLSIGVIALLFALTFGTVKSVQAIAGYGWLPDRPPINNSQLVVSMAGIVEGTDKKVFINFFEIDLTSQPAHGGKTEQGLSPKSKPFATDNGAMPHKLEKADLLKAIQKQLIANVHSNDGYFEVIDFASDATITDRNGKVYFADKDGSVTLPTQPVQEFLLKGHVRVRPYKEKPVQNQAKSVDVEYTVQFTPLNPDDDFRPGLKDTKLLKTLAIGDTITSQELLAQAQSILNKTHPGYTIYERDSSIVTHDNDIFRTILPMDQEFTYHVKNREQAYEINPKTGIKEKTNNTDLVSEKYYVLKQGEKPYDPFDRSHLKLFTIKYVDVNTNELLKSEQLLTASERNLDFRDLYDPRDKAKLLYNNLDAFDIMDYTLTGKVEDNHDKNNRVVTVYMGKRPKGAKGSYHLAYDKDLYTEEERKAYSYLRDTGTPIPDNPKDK

[13] = system: Streptococcus; experiment: GAS UMAA2166 growth inhibition – luminescence, BacTiterGlo, counter-screen for streptokinase expression inhibitor project, dose response (AID 1915); assay type: functional, organism-based;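 further: potency for reduction of bacterial viability or growth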
[14] = system: Streptococcus sp. 'group A'; experiment: Streptococcus pyogenes SK(-)GAS viability under kanamycin – luminescence, BacTiterGlo, confirmation, counter-screen for streptokinase expression inhibitor project, dose response (AID 1900); assay type: functional, organism-based
[15] = biological target: T4, Voltage-gated N-type calcium channel alpha-1B subunit/Amyloid beta A4 precursor protein-binding family A member 1 (Homo sapiens, UniProt Q00975+Q02410); assay type: protein assay
[16] = biological target: T4, Voltage-gated N-type calcium channel alpha-1B subunit/Amyloid beta A4 precursor protein-binding family A member 1; assay type: protein assay; remark: listed apart in the source

Voltage-dependent T-type calcium channel subunit alpha-1H, sequence (O95180 whole entry): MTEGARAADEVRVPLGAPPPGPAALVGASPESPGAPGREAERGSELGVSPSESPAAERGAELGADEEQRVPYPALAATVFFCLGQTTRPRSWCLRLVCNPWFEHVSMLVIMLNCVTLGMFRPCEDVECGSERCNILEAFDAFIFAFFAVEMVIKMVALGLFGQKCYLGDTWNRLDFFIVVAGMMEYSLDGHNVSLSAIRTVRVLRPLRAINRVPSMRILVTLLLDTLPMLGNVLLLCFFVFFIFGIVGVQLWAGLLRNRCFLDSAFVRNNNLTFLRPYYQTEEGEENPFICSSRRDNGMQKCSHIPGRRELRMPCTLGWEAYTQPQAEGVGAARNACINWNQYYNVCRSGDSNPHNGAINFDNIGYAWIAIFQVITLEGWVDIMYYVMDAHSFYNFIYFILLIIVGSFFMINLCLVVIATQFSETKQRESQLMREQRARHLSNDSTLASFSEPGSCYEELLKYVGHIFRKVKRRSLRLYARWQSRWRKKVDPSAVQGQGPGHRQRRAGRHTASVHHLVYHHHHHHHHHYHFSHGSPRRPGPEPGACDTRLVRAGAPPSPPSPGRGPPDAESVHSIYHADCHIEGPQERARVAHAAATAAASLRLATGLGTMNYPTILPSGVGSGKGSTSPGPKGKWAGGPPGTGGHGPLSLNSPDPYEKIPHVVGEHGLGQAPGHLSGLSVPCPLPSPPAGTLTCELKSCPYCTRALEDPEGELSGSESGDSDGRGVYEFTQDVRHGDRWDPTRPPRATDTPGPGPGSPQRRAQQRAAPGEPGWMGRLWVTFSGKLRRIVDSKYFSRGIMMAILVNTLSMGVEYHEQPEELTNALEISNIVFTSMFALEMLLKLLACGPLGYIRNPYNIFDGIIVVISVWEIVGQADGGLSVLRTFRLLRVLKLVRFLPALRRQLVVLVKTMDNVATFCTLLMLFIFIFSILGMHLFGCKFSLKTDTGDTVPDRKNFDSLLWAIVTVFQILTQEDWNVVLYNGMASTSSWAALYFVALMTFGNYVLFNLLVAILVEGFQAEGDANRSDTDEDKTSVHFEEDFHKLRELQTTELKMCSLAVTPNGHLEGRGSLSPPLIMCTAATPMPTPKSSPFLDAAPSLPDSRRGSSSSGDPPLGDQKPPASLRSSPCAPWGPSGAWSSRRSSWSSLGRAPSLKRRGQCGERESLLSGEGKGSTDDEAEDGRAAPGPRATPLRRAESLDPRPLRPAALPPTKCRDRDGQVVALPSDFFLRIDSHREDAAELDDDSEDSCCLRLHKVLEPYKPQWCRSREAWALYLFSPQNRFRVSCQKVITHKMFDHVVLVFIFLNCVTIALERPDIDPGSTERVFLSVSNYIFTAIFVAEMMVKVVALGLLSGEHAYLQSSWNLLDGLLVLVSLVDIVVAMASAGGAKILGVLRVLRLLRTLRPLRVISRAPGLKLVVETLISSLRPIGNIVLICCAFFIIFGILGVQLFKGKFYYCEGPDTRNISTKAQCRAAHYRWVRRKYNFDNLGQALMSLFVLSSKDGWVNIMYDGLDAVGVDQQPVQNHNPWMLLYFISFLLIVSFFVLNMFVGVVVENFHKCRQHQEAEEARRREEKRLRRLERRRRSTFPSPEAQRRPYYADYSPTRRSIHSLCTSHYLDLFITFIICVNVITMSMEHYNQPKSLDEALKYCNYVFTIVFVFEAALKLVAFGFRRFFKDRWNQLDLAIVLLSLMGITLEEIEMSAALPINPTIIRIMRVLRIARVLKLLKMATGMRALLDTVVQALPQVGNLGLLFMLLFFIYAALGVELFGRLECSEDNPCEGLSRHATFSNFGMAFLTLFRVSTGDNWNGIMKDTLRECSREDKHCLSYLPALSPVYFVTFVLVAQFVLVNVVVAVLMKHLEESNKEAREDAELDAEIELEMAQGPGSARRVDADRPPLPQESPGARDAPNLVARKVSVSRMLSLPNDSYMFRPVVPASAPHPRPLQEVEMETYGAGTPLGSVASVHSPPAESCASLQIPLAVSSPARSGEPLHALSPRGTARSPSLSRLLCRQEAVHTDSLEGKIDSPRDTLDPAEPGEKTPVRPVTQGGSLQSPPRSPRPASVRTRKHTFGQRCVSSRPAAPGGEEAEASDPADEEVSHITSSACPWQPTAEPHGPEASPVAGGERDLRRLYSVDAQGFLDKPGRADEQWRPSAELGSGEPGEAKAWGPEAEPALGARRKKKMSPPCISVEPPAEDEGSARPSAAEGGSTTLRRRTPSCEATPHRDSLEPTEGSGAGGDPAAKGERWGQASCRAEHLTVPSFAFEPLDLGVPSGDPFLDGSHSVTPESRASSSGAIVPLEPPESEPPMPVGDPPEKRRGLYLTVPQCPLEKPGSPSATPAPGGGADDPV
Eukaryotic translation initiation factor 4E, sequence (P63073 whole entry): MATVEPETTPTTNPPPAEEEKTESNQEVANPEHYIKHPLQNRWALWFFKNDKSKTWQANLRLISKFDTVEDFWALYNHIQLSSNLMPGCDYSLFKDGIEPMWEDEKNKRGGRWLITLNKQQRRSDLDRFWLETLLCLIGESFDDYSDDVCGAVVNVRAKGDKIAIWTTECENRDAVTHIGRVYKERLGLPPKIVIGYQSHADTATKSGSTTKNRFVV
Nucleotide-binding oligomerization domain-containing protein 2, sequence (Q9HC29 whole entry, the tested form may be a part): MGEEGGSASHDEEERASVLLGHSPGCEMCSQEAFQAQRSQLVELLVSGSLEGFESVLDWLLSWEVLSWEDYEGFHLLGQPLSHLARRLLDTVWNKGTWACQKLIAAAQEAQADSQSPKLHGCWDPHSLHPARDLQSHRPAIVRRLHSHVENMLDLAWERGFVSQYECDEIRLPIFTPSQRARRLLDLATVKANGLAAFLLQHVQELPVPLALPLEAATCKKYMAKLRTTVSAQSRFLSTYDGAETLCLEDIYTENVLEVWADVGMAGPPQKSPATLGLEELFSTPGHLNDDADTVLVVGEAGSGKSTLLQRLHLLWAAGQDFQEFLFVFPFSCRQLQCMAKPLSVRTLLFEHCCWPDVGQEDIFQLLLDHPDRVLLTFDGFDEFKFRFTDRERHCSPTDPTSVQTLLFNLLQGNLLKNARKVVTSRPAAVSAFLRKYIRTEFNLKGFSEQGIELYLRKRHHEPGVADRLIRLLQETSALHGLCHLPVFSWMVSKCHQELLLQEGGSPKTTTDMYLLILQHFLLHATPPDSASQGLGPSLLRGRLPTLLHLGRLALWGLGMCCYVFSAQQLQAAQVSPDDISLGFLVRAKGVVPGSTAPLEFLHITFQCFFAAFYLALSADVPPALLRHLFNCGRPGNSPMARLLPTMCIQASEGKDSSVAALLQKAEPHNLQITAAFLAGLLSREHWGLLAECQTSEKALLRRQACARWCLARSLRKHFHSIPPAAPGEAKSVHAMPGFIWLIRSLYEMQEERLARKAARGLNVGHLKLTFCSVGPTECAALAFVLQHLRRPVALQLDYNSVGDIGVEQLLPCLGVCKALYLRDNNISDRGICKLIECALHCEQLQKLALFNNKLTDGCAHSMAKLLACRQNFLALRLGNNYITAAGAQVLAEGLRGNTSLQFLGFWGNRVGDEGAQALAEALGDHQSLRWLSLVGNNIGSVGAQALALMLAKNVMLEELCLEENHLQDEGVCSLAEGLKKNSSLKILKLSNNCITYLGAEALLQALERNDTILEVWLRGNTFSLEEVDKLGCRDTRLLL

With CC(C)NCC(O)COCCOc1ccc(C(C)(C)C)cc1 (stereo unspecified) the EC50 [1] was 1.06 µM (active).

For CNC(=O)c1sc(N2N=C3/C(=C/c4ccccc4)CCCC3C2c2ccccc2)nc1C (stereo unspecified), the AC50 [2] was 6.72 µM (active), the EC50 [3] was 9.13 µM (active) and the EC50 [4] was 16.1 µM (active).

Cc1cc(NC(=O)C(C)Oc2ccc(Cl)cc2Cl)n(-c2ccccc2)n1 (stereo unspecified) was tested, and the EC50 [3] was 8.91 µM (active).

CCOC(=O)/C=C/C(=O)Nc1ccc(S(=O)(=O)N(C)c2ccccc2)cc1 was tested, and the EC50 [5] was > 20 µM (inactive), the IC50 [6] was > 20 µM (inactive) and the IC50 [7] was 16.3 µM (active). For the same compound, the EC50 [8] was 4.41 µM (active), the IC50 [9] was 5.26 µM (active) and the IC50 [10] was 4.98 µM (active).

With OCC(Cc1ccccc1)NCc1ccccc1C(F)(F)F (stereo unspecified) the EC50 [1] was 8.41 µM (active).

In the case of CCN(CC)S(=O)(=O)c1ccc(NC(=O)c2cc(C(=O)OC)cc([N+](=O)[O-])c2)cc1, the IC50 [11] is reported as > 64 µM (inactive).

For COc1ccc(/C=N/NC(=O)Cc2csc(Nc3cccc(C(F)(F)F)c3)n2)cc1C, the EC50 [12] was 10.4 µM (active), the EC50 [13] was > 150 µM (not active) and the EC50 [3] was 4.82 µM (active). For the same compound, the EC50 [14] was 9.89 µM (active).

With CC(=O)Nc1ccc(NC(=O)c2cc(-c3ccc(C)c(C)c3O)[nH]n2)cc1 the IC50 [15] was > 50 µM (inactive) and the IC50 [16] was 23.2 µM (active).

With CCC(=O)N1CCc2cc(S(=O)(=O)NCCN3CCCCC3CC)ccc21 (stereo unspecified) the EC50 [1] was 2.66 µM (active).

With Cc1cccc(-c2noc(CN(C(=O)c3ccc(Br)o3)C(C)C)n2)c1 the EC50 [3] was 11.1 µM (active).

Reference: ChEMBL document CHEMBL1201862, “PubChem BioAssay data set” (2004)
